The source of these data is patent publication US8252832B2, “Kinesin inhibitors as cancer therapeutics” (Novartis AG, priority 2007, dated 2012).

For orientation: GI50 means the concentration that inhibits growth by half. Read a high GI50 as lower sensitivity of the cells.

Experiment in all cases: CellTiter-Glo proliferation, 72 hours
Holding throughout (assay type): cell-based
(ATP-based viability assays read luminescence as a measure of living cells.)

One assay has as its system AGS. The settings on record: Homo sapiens, Gastric. The source says: (§1) Cell lines used were as follows: HCT-116 (National Cancer Institute's DCTF Tumor Repository, catalog #NCI-502568, Rockville, Md.), HCT-15 (National Cancer Institute's DCTF Tumor Repository, catalog#NCI-502711, Rockville, Md. available from American Type Tissue Collection, catalog #CLL-225), KB-3-1 (available from DSMZ, Deutsche Sammlung von Mikroorganismen und Zellkulturen GmbH (German Collection of Microorganisms and Cell Cultures—catalog number ACC 158), KB-V1 (available from DSMZ—catalog number ACC 149), AGS (available from American Type Culture Collection, Manassas Va., catalog number CRL-1739™), N87 (available from American Type Culture Collection, Manassas Va., catalog number CRL-5822), Hel92.1.7 (available from American Type Culture Collection, Manassas Va., catalog number TIB 180), K562 (available from American Type Culture Collection, Manassas Va., catalog number CRL-243™), MV4; 11 (American Tissue Culture Collection, Manassas Va., catalog number CRL-9591) and U937 (available from American Type Culture Collection, Manassas Va., catalog number CRL-1593.2).
(§2) Cells were plated in 96-well plates at densities of about 500 cells per well of a 96-well plate and allowed to grow for 24 hours. The cells were then treated with various concentrations of compounds for 72 hours. Then, 100 μl of CellTiter-Glo® reagent was added (Promega Corporation). CellTiter-Glo® is used in a homogeneous method of determining the number of viable cells using the single CellTiter-Glo® reagent to detect ATP (U.S. Pat. Nos. 6,602,677 and 7,241,584) (see Promega product catalog #G7570). Following the addition of the CellTiter-Glo® reagent, the cells were incubated in the dark for 30 minutes. The amount of luminescence was determined for each well using a Wallac Trilux plate reader, which correlates with the number of cells per well. The number of viable cells in the wells that receive only DMSO (0.5%) served as an indication of 0% inhibition, while wells without cells served as 100% inhibition of cell growth. […] This broad activity is consistent with a compound that is a mitotic inhibitor.

A further assay concerns HCT-116. The settings on record: Homo sapiens; Colon, HCT-116, 72 hours.
Source text: as §1, §2

In a further assay the test system is HCT-15. Conditions: Homo sapiens; Colon, HCT-15, 72 hours.
Source text: as §1, §2

The next assay concerns Hel92.1.7. The settings on record: Homo sapiens, HEL 92.1.7; Leukemia, Hel92.1.7, 72 hours.
Source text: as §1, §2

Another assay has as its system K562. Conditions: Homo sapiens; Leukemia, K562, 72 hours.
Source text: as §1, §2

In the next assay the test system is KB3.1. The settings on record: Homo sapiens, KB 3-1; Epidermoid, KB3.1, 72 hours.
Source text: as §1, §2

The next assay relates to KBV1. Conditions: Homo sapiens, KB-V1; Epidermoid, KBV1, 72 hours.
Source text: as §1, §2

The next assay concerns MV4-11. Conditions: Homo sapiens; Leukemia, MV4-11, 72 hours.
Source text: as §1, §2

In another assay the test system is N87. The settings on record: Gastric, N87, 72 hours.
Source text: as §1, §2

Another assay relates to U937. Conditions: Homo sapiens, U-937; Leukemia, U937, 72 hours.
Source text: as §1, §2

Turning to `CC(C)(C)[C@H](c1nc(-c2cc(F)ccc2F)cn1Cc1ccccc1)N(CC[C@H](N)CF)C(=O)CO` [Compound IIa], the GI50 in the assay with AGS is 0.2 nM; in the assay on HCT-116, 0.1 nM; with HCT-15, 0.3 nM; in the assay with Hel92.1.7 it was 0.5 nM; in the assay with K562, 0.1 nM; in the assay with KB3.1, 0.6 nM. The GI50 worked out at 6.5 nM with KBV1, 0.2 nM in the assay on MV4-11, 1 nM in the assay on N87 and 0.1 nM with U937.
